Laboratory results as given in patent publication US20250281633A1, “HER2 TARGETING FC ANTIGEN BINDING FRAGMENT-DRUG CONJUGATES” (MERCK PATENT GMBH, priority 2021, published 2025).

Columns and labels:
FcRn = assay: KD [nM]
Source text: Errors are standard errors from fitting using FortéBio data analysis software 9.1. Fitting quality is characterized by R^2. Data is derived from BLI sensorgrams represented in FIG. 22 and FIG. 23.

[1] = system: HER2 positive (SKBR-3, HCC-1954) and HER2 negative (MDA-MB-468) cells; assay: Cellular binding analysis by flow cytometry; type: cell-based, human; details: 100 nM, 60 min, 4° C.
Protocol: Relative order of fluorescence intensity of distinct variants on HER2 positive cells correspond to their HER2 binding affinity. Cells were incubated with 100 nM of Fcab/antibody for 60 min at 4° C., washed twice with PBS-1% BSA, incubated for 30 min with 500 nM of AF488-labeled detection antibody (Jackson ImmunoResearch) at 4° C. in darkness, washed twice with PBS-1% BSA, and finally fluorescence intensity was measured applying an Attune NxT flow cytometer (Invitrogen™).

Substance	Kd (FcRn)	cellular binding to HCC-1954 cells (in words) [1]
huFc: native human Fc-based negative control [listing 1 of 2 here]	0.524 ± 0.013 µM	–
huFc: native human Fc-based negative control [listing 2 of 2 here]	–	binds only slightly
